Results reported in patent publication US6963012B2, “Diaryl ether derivative, addition salt thereof, and immunosuppressant” (Kyorin Pharmaceutical Co., Ltd., priority 2001, dated 2005).
Where a name gives a salt, the structure may show the parent alone.

Legend:
[1] = test system: Delayed-type Hypersensitivity in Mice; test: Ability of test compounds to suppress delayed-type hypersensitivity in mice (DNFB, ear thickness); assay type: in vivo, mice (BALB/c); settings: dose 3 mg/kg, orally, 30 minutes before DNFB challenge; increase in ear thickness 24 hours after the challenge
Protocol: <Experiment 2> Ability of Test Compounds to Suppress Delayed-type Hypersensitivity in Mice. […] The sensitization was done for 2 consecutive days (day 0 and day 1). On day 5, the ears of the mice were challenged with the antigen to induce delayed-type hypersensitive responses: First, the thickness of each ear was measured by the dial thickness gauge G (0.01-10 mm, OZAKI MFG Co., Ltd.). Next, a test compound was administered. 30 minutes after the administration, 10 μL of a 0.2% (v/v) DNFB solution was applied to the inner and outer surfaces of the right ear of each animal for antigen challenge. The left ear of each animal was challenged with the solvent alone. 24 hours after the challenge, the increase in the ear thickness was measured for each ear and the difference between the right and the left ears was determined for each individual. The test compound was dissolved, or suspended, in an ultra pure water and was orally administered at a dose of 0.1 mL/10 g of body weight. A control group was administered ultra pure water alone.

[2] = test system: Host vs Graft Rejection in Mice; test: Ability of test compounds to suppress host vs graft rejection in mice (popliteal lymph node weight); assay type: in vivo, mice (C3H/HeN, BALB/c stimulation cells); settings: Mus musculus
Protocol: Ability of Test Compounds to Suppress Host vs Graft Rejection in Mice
This experiment was performed according to the method described in Transplantation, 55, No.3 (1993): 578-591. Spleens were collected from 9 to 11 week old male BALB/c mice (CLEA JAPAN Inc., CHARLES RIVER JAPAN Inc., or JAPAN SLC Inc.). The spleens were placed in a phosphate-buffered saline (PBS(−), NISSUI PHARMACEUTICAL Co., Ltd.) or in an RPMI-1640 medium (GIBCO […] Inc., or IWAKI GLASS Co., Ltd.) and were either passed through a stainless steel mesh, or gently pressed between two slide glasses and then passed through a cell strainer (70 μm, Falcon), to form a cell suspension. The suspension was then centrifuged and the supernatant was discarded. An ammonium chloride-Tris isotonic buffer was added to the suspension to lyse erythrocytes. The cells were then centrifuged and washed three times in PBS (−) or RPMI-1640 medium and were resuspended in an RPMI-1640 medium. To this suspension, mitomycin C (KYOWA HAKKO KOGYO Co., Ltd.) was added to a final concentration of 25 μg/mL and the suspension was incubated for 30 minutes at 37° C. in a 5% CO2 atmosphere. The cells were again centrifuged and washed in PBS (−) or RPMI-1640 medium and were resuspended in an RPMI-1640 medium so that the medium would contain 2.5×10^8 cells/mL. This suspension served as a “stimulation cell suspension.” Using a 27G needle along with a microsyringe (Hamilton), 20 μL (5×10^6 cells/mouse) of the stimulation cell suspension was subcutaneously injected into the right hind footpad of 7 to 9 week old male C3H/HeN mice (CLEA JAPAN Inc., CHARLES RIVER JAPAN Inc., or JAPAN SLC Inc.). A group of mice was injected with RPMI-1640 medium alone to serve as normal control. 4 days after the injection, right popliteal lymph nodes were collected and were weighed on a Mettler AT201 electronic scale (METTLER TOLEDO Co., Ltd.). Each animal was intraperitoneally administered a test compound once a day for four consecutive days starting on the day of the injection of the stimulation cells (i.e., total of 4 times). Controls were administered a vehicle that has the same composition as that used in the preparation of the test compounds.

Cl.NC(CO)(CO)CCc1ccc(Oc2cccc(OCc3ccccc3)c2)cc1Cl
melting point: 150 to 152 °C

Cl.NC(CO)(CO)CCCc1ccc(Oc2cccc(OCc3ccccc3)c2)cc1Cl [Example 173, 2-amino-2-[4-(3-benzyloxyphenoxy)-2-chlorophenyl]propyl-1,3-propanediol hydrochloride]
Inhibition [1]: 64%
inhibition at 3 mg/kg [2]: 100%
melting point: 105 to 106 °C

Cl.NC(CO)(CO)CCCc1ccc(Oc2cc(C(F)(F)F)cc(C(F)(F)F)c2)cc1 [Example 147, 2-amino-2-[4-(3,5-bistrifluoromethylphenoxy)phenyl]propyl-1,3-propanediol hydrochloride]
inhibition at 10 mg/kg [2]: 82%
melting point: 194 to 196 °C

Cl.NC(CO)(CO)C/C=C/c1ccc(Oc2cc(C(F)(F)F)cc(C(F)(F)F)c2)cc1
melting point: 203 to 206 °C

CC(C)c1cccc(Oc2ccc(CCCC(N)(CO)CO)cc2)c1 [Example 150, 2-amino-2-[4-(3-isopropylphenoxy)phenyl]propyl-1,3-propanediol hydrochloride]
inhibition at 10 mg/kg [2]: 78%

Cl.NC(CO)(CO)CCOc1ccc(Oc2cc(C(F)(F)F)cc(C(F)(F)F)c2)cc1
melting point: 151 to 155 °C

Cl.NC(CO)(CO)CCCc1ccc(Oc2cccc(OCCCc3ccccc3)c2)cc1 [Example 148, 2-amino-2-[4-(3-phenylpropyloxyphenoxy)phenyl]propyl-1,3-propanediol hydrochloride]
inhibition at 3 mg/kg [2]: 78%
melting point: 95 to 98 °C

Cl.NC(CO)(CO)CCCCc1ccc(Oc2cccc(OCc3ccccc3)c2)cc1Cl
melting point: 95 to 97 °C
